Data reported in PubChem BioAssay AID330 (DTP/NCI, 2004).
“And” between values parts separate entries of the source, which are not always exact repeats. Equal entries are not always repeated. Toxic doses and inconclusive results are not listed. Rule for the calls: active = survival T/C of 150% or more; inactive = T/C below 125% in these data.

System: P388 leukemia ip, CD2F1 mice, survival T/C
Assay: NCI In Vivo Anticancer Drug Screen. Data for tumor model P388 Leukemia (intraperitoneal) in CD2F1 (CDF1) mice
Settings: endpoint: median survival time, higher = longer survival
In short: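 Mice carrying the transplanted tumor received test compound or vehicle. Survival was recorded in each group, and the value is the treated-group measurement divided by that of the vehicle-treated control group.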

[1] = dose: 100.0 mg/kg/injection, schedule: Q01DX005 (ip), vehicle: saline with Tween-80
[2] = dose: 200.0 mg/kg/injection, schedule: Q01DX005 (ip), vehicle: saline with Tween-80
[3] = dose: 12.5 mg/kg/injection, schedule: Q01DX009 (ip), vehicle: saline with Tween-80
[4] = dose: 25.0 mg/kg/injection, schedule: Q01DX009 (ip), vehicle: saline with Tween-80
[5] = dose: 50.0 mg/kg/injection, schedule: Q01DX009 (ip), vehicle: saline with Tween-80
[6] = dose: 50.0 mg/kg/injection, schedule: Q04DX003 (ip), vehicle: saline with Tween-80
[7] = dose: 100.0 mg/kg/injection, schedule: Q04DX003 (ip), vehicle: saline with Tween-80
[8] = dose: 60.0 mg/kg/injection, schedule: Q01DX005 (ip), vehicle: saline with Tween-80
[9] = dose: 120.0 mg/kg/injection, schedule: Q01DX005 (ip), vehicle: saline with Tween-80
[10] = dose: 240.0 mg/kg/injection, schedule: Q01DX005 (ip), vehicle: saline with Tween-80
[11] = dose: 50.0 mg/kg/injection, schedule: Q01DX005 (ip), vehicle: saline with Tween-80
[12] = dose: 100.0 mg/kg/injection, schedule: Q01DX001 (ip), vehicle: saline with Tween-80
[13] = dose: 200.0 mg/kg/injection, schedule: Q01DX001 (ip), vehicle: saline with Tween-80
[14] = dose: 400.0 mg/kg/injection, schedule: Q01DX001 (ip), vehicle: saline with Tween-80
[15] = dose: 6.25 mg/kg/injection, schedule: Q01DX009 (ip), vehicle: saline with Tween-80
[16] = dose: 25.0 mg/kg/injection, schedule: Q01DX009 (ip), vehicle: saline
[17] = dose: 50.0 mg/kg/injection, schedule: Q01DX009 (ip), vehicle: saline
[18] = dose: 100.0 mg/kg/injection, schedule: Q01DX009 (ip), vehicle: saline with Tween-80
[19] = dose: 100.0 mg/kg/injection, schedule: Q01DX009 (ip), vehicle: saline
[20] = dose: 200.0 mg/kg/injection, schedule: Q01DX009 (ip), vehicle: saline with Tween-80
[21] = dose: 100.0 mg/kg/injection, schedule: Q04DX002 (ip), vehicle: saline with Tween-80

Measured: T/C

O=C(c1cc(Nc2ccnc3cc(Cl)ccc23)ccc1O)N1CCCCC1
inactive: [1] 120 % of control | [2] 121 % of control

CC(=O)c1cc(-c2ccccn2)c(=O)n2ccccc12
inactive: [3] 105 % of control | [4] 99 % of control | [5] 100 % of control and 87 % of control

CSCCCCCCSC
inactive: [6] 100 % of control | [7] 100 % of control | dose: 200.0 mg/kg/injection, schedule: Q04DX003 (ip), vehicle: saline with Tween-80 109 % of control

C=CC1CN2CCC1CC2C(O)c1ccnc2ccccc12 (centres undefined)
inactive: dose: 60.0 mg/kg/injection, schedule: Q01DX005 (ip), vehicle: saline 98 % of control | dose: 120.0 mg/kg/injection, schedule: Q01DX005 (ip), vehicle: saline 98 % of control

COc1cc(/C=C2/Nc3ccc(Cl)cc3NC2=O)ccc1O
inactive: [8] 93 % of control | [9] 98 % of control | [10] 96 % of control

C/C(=N\NC(=S)Nc1ccc([N+](=O)[O-])cc1S(=O)(=O)O)c1ccccn1
inactive: [11] 103 % of control | [1] 106 % of control | [2] 103 % of control

CN1C(c2ccccc2)C2CSCC(C1c1ccccc1)C21NC(=O)NC1=O (centres undefined)
inactive: [12] 104 % of control | [13] 100 % of control | [14] 97 % of control

O=C(c1cc2c(cc1Br)OCO2)N1CCCc2ccccc21
inactive: dose: 25.0 mg/kg/injection, schedule: Q01DX009 (ip), vehicle: other 100 % of control | dose: 50.0 mg/kg/injection, schedule: Q01DX009 (ip), vehicle: other 97 % of control | dose: 100.0 mg/kg/injection, schedule: Q01DX009 (ip), vehicle: other 102 % of control | dose: 200.0 mg/kg/injection, schedule: Q01DX009 (ip), vehicle: other 97 % of control | dose: 400.0 mg/kg/injection, schedule: Q01DX009 (ip), vehicle: other 93 % of control

CCOC(=O)c1sc(SSc2sc(C(=O)OCC)c(C)c2[N+](=O)[O-])c([N+](=O)[O-])c1C
inactive: dose: 1.56 mg/kg/injection, schedule: Q01DX009 (ip), vehicle: saline with Tween-80 94 % of control | dose: 3.12 mg/kg/injection, schedule: Q01DX009 (ip), vehicle: saline with Tween-80 101 % of control | [15] 93 % of control | [3] 88 % of control | dose: 25.0 mg/kg/injection, schedule: Q04DX003 (ip), vehicle: saline with Tween-80 102 % of control | [6] 93 % of control | [7] 86 % of control and 97 % of control

CCCC(=O)Nc1nc2ccc([N+](=O)[O-])cc2s1
inactive: [3] 106 % of control | dose: 12.5 mg/kg/injection, schedule: Q01DX009 (ip), vehicle: saline 97 % of control | [4] 97 % of control | [16] 98 % of control | [5] 99 % of control and 123 % of control | [17] 98 % of control | [18] 110 % of control and 96 % of control | [19] 101 % of control | [20] 108 % of control

CSCNC(=S)Nc1ccc(Cl)c(Cl)c1
inactive: [5] 100 % of control | [18] 107 % of control

CC12CC(CS(=O)C1)c1ccccc1N2 (centres undefined)
inactive: [21] 97 % of control | dose: 200.0 mg/kg/injection, schedule: Q04DX002 (ip), vehicle: saline with Tween-80 101 % of control | dose: 400.0 mg/kg/injection, schedule: Q04DX002 (ip), vehicle: saline with Tween-80 100 % of control

Cc1ccc(C(=O)/C(N)=C\c2c[nH]c3ccccc23)cc1
inactive: [12] 104 % of control | [13] 100 % of control | [14] 98 % of control

CCCCNC(c1ccc(N(CC)CC)cc1)C(Cl)(Cl)Cl (centres undefined)
inactive: dose: 50.0 mg/kg/injection, schedule: Q01DX005 (ip), vehicle: saline 105 % of control and 106 % of control | dose: 50.0 mg/kg/injection, schedule: Q01DX005 (ip), vehicle: water 100 % of control | dose: 100.0 mg/kg/injection, schedule: Q01DX005 (ip), vehicle: saline 108 % of control and 116 % of control | dose: 100.0 mg/kg/injection, schedule: Q01DX005 (ip), vehicle: water 93 % of control | dose: 200.0 mg/kg/injection, schedule: Q01DX005 (ip), vehicle: saline 110 % of control

O=C1c2cccc([N+](=O)[O-])c2C(=O)c2nccnc21
inactive: dose: 6.0 mg/kg/injection, schedule: Q01DX005 (ip), vehicle: Klucel (hydroxypropylcellulose) (HPC) 100 % of control | dose: 12.0 mg/kg/injection, schedule: Q01DX005 (ip), vehicle: Klucel (hydroxypropylcellulose) (HPC) 107 % of control

O=C1N/C(=N\c2nc3ccccc3s2)c2ccccc21
inactive: [15] 88 % of control | [4] 91 % of control | [18] 86 % of control | [20] 89 % of control

CCCCCCCCCCCCSCN(CC)CC
inactive: [16] 89 % of control | [17] 99 % of control and 111 % of control | [19] 101 % of control and 103 % of control

CCOC(=O)C/C(=N\Nc1ccc([N+](=O)[O-])cc1[N+](=O)[O-])c1ccccc1
inactive: [12] 100 % of control | [13] 100 % of control | [14] 100 % of control

CCCCCCC(=O)/C=C/c1cccc(OCc2ccc(Cl)cc2)c1
inactive: [5] 101 % of control | [18] 93 % of control | [20] 101 % of control

CC(CN(C)C)OC(=O)C1(c2ccccc2)CCOc2ccccc21 (centres undefined)
inactive: [8] 108 % of control | [9] 108 % of control | [10] 109 % of control

COC(=O)c1ncn(Cc2ccccc2)c1N
inactive: dose: 25.0 mg/kg/injection, schedule: Q04DX002 (ip), vehicle: saline with Tween-80 101 % of control | dose: 50.0 mg/kg/injection, schedule: Q04DX002 (ip), vehicle: saline with Tween-80 91 % of control | [21] 104 % of control and 93 % of control

C=C(C)C1CC=C(C)C(CCC2C(=C)CCC3C(C)(C)C(OC4OC(CO)C(O)C(O)C4NC(C)=O)CCC23C)C1(C)CCC(=O)O (centres undefined)
inactive: dose: 35.75 mg/kg/injection, schedule: Q01DX005 (ip), vehicle: Klucel (hydroxypropylcellulose) (HPC) 91 % of control | dose: 71.5 mg/kg/injection, schedule: Q01DX005 (ip), vehicle: Klucel (hydroxypropylcellulose) (HPC) 87 % of control | dose: 143.0 mg/kg/injection, schedule: Q01DX005 (ip), vehicle: Klucel (hydroxypropylcellulose) (HPC) 97 % of control

CC(=NC(C)C)N1CCCCC1
inactive: [17] 101 % of control | [19] 101 % of control

CCN(CC)C(=S)Oc1cc(C)nc(SCC(=O)c2ccc(Cl)cc2)n1
inactive: dose: 50.0 mg/kg/injection, schedule: Q01DX009 (ip), vehicle: Klucel (hydroxypropylcellulose) (HPC) 108 % of control | dose: 100.0 mg/kg/injection, schedule: Q01DX009 (ip), vehicle: Klucel (hydroxypropylcellulose) (HPC) 100 % of control | dose: 200.0 mg/kg/injection, schedule: Q01DX009 (ip), vehicle: Klucel (hydroxypropylcellulose) (HPC) 103 % of control

O=C1CSC(=S)N1c1ccc(F)cc1F
inactive: dose: 50.0 mg/kg/injection, schedule: Q01DX009 (ip), vehicle: suspension in saline 97 % of control | dose: 100.0 mg/kg/injection, schedule: Q01DX009 (ip), vehicle: suspension in saline 100 % of control | dose: 200.0 mg/kg/injection, schedule: Q01DX009 (ip), vehicle: suspension in saline 100 % of control

CCOC(=O)C1C(c2ccc(N(C)C)cc2)c2cc3c(cc2OC1(C)N1CCCC1)OCO3 (centres undefined)
inactive: dose: 60.0 mg/kg/injection, schedule: Q01DX005 (ip), vehicle: Klucel (hydroxypropylcellulose) (HPC) 100 % of control | dose: 120.0 mg/kg/injection, schedule: Q01DX005 (ip), vehicle: Klucel (hydroxypropylcellulose) (HPC) 96 % of control | dose: 240.0 mg/kg/injection, schedule: Q01DX005 (ip), vehicle: Klucel (hydroxypropylcellulose) (HPC) 93 % of control

C=CCc1ccc(Oc2cc(CC=C)cc(O)c2O)cc1
inactive: dose: 25.0 mg/kg/injection, schedule: Q01DX005 (ip), vehicle: Klucel + Tween-80 101 % of control | dose: 50.0 mg/kg/injection, schedule: Q01DX005 (ip), vehicle: Klucel + Tween-80 104 % of control | dose: 100.0 mg/kg/injection, schedule: Q01DX005 (ip), vehicle: Klucel + Tween-80 106 % of control | dose: 200.0 mg/kg/injection, schedule: Q01DX005 (ip), vehicle: Klucel + Tween-80 113 % of control

CN(C)NP(=S)(NN(C)C)Oc1ccccc1
inactive: [11] 117 % of control | [1] 99 % of control
